US20180105546A1, “Methods for Chemical Synthesis of Biologically Active Compounds Using Supramolecular Protective Groups and Novel Compounds Obtainable Thereby” (Rijksuniversiteit Groningen, priority 2011, published 2018)
“Also recorded” adds a separate entry of the source.

How the values were obtained:
E. coli ATCC 25922 [1] = assay: Minimum Inhibitory Concentration (MIC) test; assay type: cell-based; details: for MIC: E. coli ATCC 25922, Mueller-Hinton broth, overnight 37° C., HFBA salts except 1* (sulphate); for antimicrobial activity against E. coli ATCC 25922 (in words): Kirby-Bauer Disk Test and MIC, summary statement
Description: All test solutions contained 40 nmol of antibiotic. After drying, the samples were resuspended in 100 μL of Mueller-Hinton broth. Each solution of antibiotic in broth media was pipetted in the first lane of a 96 well plate (volume of well 500 μL). The remaining lanes were filled with 50 μL of E. coli ATCC 25922 culture with an OD600 of 0.264. Series of 2-fold dilution were made removing from the first lane 50 μL of the antibiotic solution and resuspending it with the culture contained in the next well. At the end, all wells were filled with 100 μL of E. coli ATCC 25922 culture in Mueller-Hinton with an OD600 of 0.132 (0.5 McFarland) and the appropriate amount of antibiotic. The 96-well plates were incubated overnight at 37° C. and 350 RPM shaking.

E. coli ATCC 25922 [2] = assay: Kirby-Bauer disk test (zone of inhibition); assay type: cell-based; details: amount 17.5 nmol per disk, HFBA salts except 1* (sulphate)
Description: Antibiotic disks preparation. Paper disks (6 mm diameter, BBL Microbiology Systems) were wetted through with 20, 25, 30 and 35 μL of a solution containing the antibiotic sample at a concentration of 0.5 nmol/μL. The wet disks were dried in a desiccator overnight, and used the next day.
Culture preparation. A colony picked from a freshly made plate of the bacteria strain E. coli ATCC 25922 was used to inoculate 20 mL of Mueller-Hinton broth and the obtained culture was grown overnight at 37° C. and 250 RPM shaking.
Kirby-Bauer test procedure. A new culture was made adding 1 mL of overnight culture in 99 mL of fresh Mueller-Hinton broth. The culture was grown at 37° C. and 250 RPM shaking until it reached an OD600 of 0.132 (0.5 McFarland) and a series of Mueller-Ilinton-Agar plates preheated at 37° C. were inoculated spreading 200 μL of that culture with sterile cotton. The plates were then dried for 30 minutes. Then on each plate 3 or 4 antibiotic paper disks were placed. The plates were incubated overnight at 37° C. and subsequently the diameter of the inhibition growth zone was measured.

| Molecule | MIC (E. coli ATCC 25922 [1]) [µM] | Diameter (zones of inhibition as determined by Kirby-Bauer disk method) (E. coli ATCC 25922 [2]) [mm] | MIC (E. coli ATCC 25922 [1]; Escherichia coli, ATCC25922) [µM] | antimicrobial activity against E. coli ATCC 25922 (in words) (E. coli ATCC 25922 [1]) |
| --- | --- | --- | --- | --- |
| NCC1OC(OC2C(CO)OC(OC3C(O)C(N)CC(N)C3OC3OC(CN)C(O)C(O)C3N)C2O)C(N)C(O)C1O.O=C(O)C(F)(F)C(F)(F)C(F)(F)F.O=C(O)C(F)(F)C(F)(F)C(F)(F)F.O=C(O)C(F)(F)C(F)(F)C(F)(F)F.O=C(O)C(F)(F)C(F)(F)C(F)(F)F.O=C(O)C(F)(F)C(F)(F)C(F)(F)F.O=C(O)C(F)(F)C(F)(F)C(F)(F)F (centres unmarked) [1^, neomycin B×6 HFBA, reference compound] | 3.1 | 16.1 | – | – |
| NC[C@@H]1O[C@H](O[C@H]2[C@@H](O)[C@H](O[C@@H]3[C@@H](O)[C@H](N)C[C@H](N)[C@H]3O[C@H]3O[C@H](CO)[C@@H](O)[C@H](O)[C@H]3N)O[C@@H]2CO)[C@H](N)[C@@H](O)[C@@H]1O [2^, paromomycin, reference compound] | – | 13.2 | 12.5 | – |
| CC(=O)NCC1O[C@H](OC2C(O)[C@H](OC3C(O)[C@H](N)CC(N)[C@H]3O[C@H]3OC(CN)[C@@H](O)C(O)C3N)O[C@@H]2CO)C(N)C(O)[C@@H]1O (some centres unmarked) [5a, N^6(VI)-acetyl neomycin B] | – | 13.9 | 6.3 | still highly active |
| CC(C)C(=O)NCC1O[C@H](OC2C(O)[C@H](OC3C(O)[C@H](N)CC(N)[C@H]3O[C@H]3OC(CN)[C@@H](O)C(O)C3N)O[C@@H]2CO)C(N)C(O)[C@@H]1O (some centres unmarked) [compound 6] | – | 11.5 | 12.5 | still highly active; also recorded: same biological activity as paromomycin 2 |
| neomycin B [compound 1, reference compound] | 3.1 | – | – | – |
